{
  "source": "patent USRE37670E1",
  "about": "“Antiproliferative and neurotrophic molecules” (American Biogenetics Inc., priority 1994, dated 2002)",
  "key": {"[1]": {"system": "neuro-2a neuroblastoma cells", "assay": "Neurite outgrowth / differentiation, scanning electron microscopy", "type": "cell-based, mouse", "details": "for neurite outgrowth: 48 hours", "procedure": "Neuroblastoma cells were cultured in the presence of 2-n-butyl-4-pentynoic acid (1.0 mM, 2 mM); and 2-n-pentyl-pentynoic acid (0.3 mM, 0.5 mM). Test medium was added to cells after 24 hours in culture and maintained as a test medium for 48 hours after which they were fixed in 2.5% glutaraldehyde and […] sodium phosphate buffer overnight at 4° C. Cells were postfixed with osmium tetroxide and prepared for scanning microscopy as described.\nThe neurotrophic activity associated with valproate and its analogues may be determined based on in vitro indices of differentiation, including inhibition of mitosis, increase in neurite outgrowth, and NCAM expression. For example, the ability to promote neurite outgrowth is correlated with enhanced survival of certain cultured neural cells including embryonic sensory and sympathetic neurons. Proliferating immature neuroblasts, in vitro, have a rounded shape and are loosely adherent to culture surfaces. In the presence of a neurotrophic factor, these cells become more adherent and sprout processes known in the art as neurites. Accordingly, in vitro neurite outgrowth may be used as an assay for determining concentrations of compound in contact with target cells which would be expected to achieve desirable neuroprotecting effects.\nCells which were to be examined by scanning electron microscopy were grown as previously described in 25cm^2 flasks. Following 48 h exposure to the agent, cells were fixed in a solution of 2.5% glutaraldehyde in 0.1M sodium phosphate buffer, pH 7.4, overnight at 4° C. The cells were post-fixed subsequently in phosphate-buffered 1% osmium tetroxide for 1 h at room temperature, washed and were dehydrated gradually for 1 hour using a series of ethanol concentrations stepwise from 20, 40, 60, 80 to a final concentration 100%.\nSections of the base of the tissue culture flask were removed and were critical point dried to minimize shrinkage and cracking. This was achieved by placing the samples in a Polaron critical point dryer and purging the chamber several times with CO2 to remove all traces of ethanol. After 1 h the temperature and pressure were increased to 40° C. and 1200 lbs/in^2, respectively, at which stage the critical point for carbon dioxide had been reached and drying was completed.\nSpecimens were subsequently removed from the chamber, mounted on stubs suitable for scanning electron microscopy using conductive carbon cement (Neubauer) and were sputter coated with gold under vacuum (5×10^−2 torr) in the presence of argon gas at a current of 20 mA for 3 minutes (Polaron E5100). Following gold-coating, samples were examined in the scanning electron microscope (JEOL 35C) at an accelerating voltage of 15 kV."}, "[2]": {"system": "mouse neuro-2a neuroblastoma cells", "assay": "Antiproliferative assay, cell counting after 48 h", "type": "cell-based", "procedure": "Neuro-2a neuroblastoma cells were cultured in 25 cm^2 flasks for 48 hours in the presence of test medium. After 48 hours, cells were observed, photographed and harvested with trypsin for counting using a haemocytometer. Cell number is expressed as percentage mean±SEM (n=3) of control values.\nAccordingly, representative cells may be cultured in vitro in the presence of varying concentration of test compound. At an appropriate time, the cells under the different conditions are examined for the appropriate parameter (for example, cell number for antimitotic activity; neurite outgrowth for neurotrophic activity) and the ED50 may be determined.\nAntiproliferative and neuroprotective actions should be sufficient to achieve the desired inhibition of mitosis or neuroprotection without serious hetaptotoxic side effects. […] Dose response curves may be determined first in vitro in a relevant animal model to determine ranges of expected therapeutic concentrations in humans. […] Other cell lines, including those of human origin may be used to assesses activity as well.\nThe mouse neuro-2a neuroblastoma cell line (Klebe and Ruddle, 1969 J. Cell Biol., 43:69A) was cultured in Dulbecco's modified Eagle's medium (DMEM; Flow Laboratories) supplemented with 10% fetal bovine serum (Tissue Culture Services), […] glutamine and 100 μg/ml of gentamicin or 100 units/ml and 100 μg/ml of penicillin/streptomycin antibiotics (Sigma Chemicals). The cells were maintained in a water-humidified atmosphere of 9% CO2at 37° C. Cells were passaged using 0.025% trypsin (Gibco) in DMEM, and were seeded at a density of 1×10^4 cells/cm^2.\nNeuro-2a cells were seeded in 25cm^2 flasks (Costar) at a density of 1×10^4 cells/cm^2. Following a recovery period of 24 h, the agent to be examined was added to the cells in a vehicle of dimethyl sulphoxide (DMSO), the volume of which was 0.2% of the total volume of medium bathing the cells. A flask containing the DMSO vehicle alone was employed as control. Following incubation for 48h, cells were examined using an inverted phase contrast microscope (Leitz Diavert) and photographed (Ilford 50ASA film). Cells were then harvested by trypsinization and were counted using a haemocytometer (improved Neubauer model)."}, "[3]": {"assay": "Teratogenic activity", "details": "in vivo", "description": "Nau, H. et al., Pharmacol. & Toxicol. (1991) 69:310-321."}, "[4]": {"system": "Neural Cell Adhesion Molecule (NCAM) in neuro-2a neuroblastoma cells", "assay": "NCAM immunofluorescence microscopy", "type": "cell-based, mouse", "details": "1.0 mm; compared to control cells", "procedure": "FIGS. 3A-1, 3A-2 and 3B: Neural Cell Adhesion Molecule (NCAM) immunofluorescence in neuro-2a neuroblastoma cells. […] Panel B. Neuroblastoma cells were cultured for 48 hours in the presence of increasing concentrations of 2-n-butyl-4-pentynoic acid and 2-n-pentyl-4-pentynoic acid. They were then fixed and prepared for staining with rabbit anti-NCAM antibody. A second anti-rabbit antibody conjugated to rhodamine was incubated with the cells to detect bound anti-NCAM antibody. […] Immunofluorescence is expressed as mean +/− SEM.\nCells were seeded in 24-well plates at a density of 1×10^4 cells/cm^2. Following a recovery period 24 h they were exposed for an additional 48 h to the drug under investigation. […] The cells were again washed three times with phosphate buffered saline pH 7.4 and were then mounted using Citifluor (Agar Scientific) containing a fluorescence enhancer. Fluorescence of rhodamine was visualized using an excitatory wavelength of 535 nm (Leica filter block N2.1) on a Leitz DMRB fluorescence microscope. Fluorescence intensity was examined at points of cell-cell contact using a Quantimet 500 Image Analysis System. Fluorescence intensity is expressed as grey level at points of cell contact relative to that observed in the control."}, "[5]": {"details": "literature; cited from earlier work"}, "[6]": {"details": "experimental models; literature; cited from earlier work"}, "[7]": {"details": "human; literature; cited from earlier work"}, "[8]": {"system": "neural derived cell proliferation", "details": "literature; cited from earlier work"}},
  "data": [
    {"smiles": "C#CCC(CC(C)C)C(=O)O", "note": "(stereo not drawn)", "values": [
      {"measurement": "prodifferentiative potency", "setting": "[1]", "value": "low"},
      {"measurement": "antiproliferative potency / activity", "setting": "[2]", "value": "low"},
      {"measurement": "teratogenic potency", "setting": "[3]", "value": "low"}
    ]},
    {"smiles": "C#CCC(CCCCCC)C(=O)O", "note": "(racemic) [2-n-hexyl-4-pentynoic acid, (±)-2-(2-propinyl)-Octanoic acid]", "values": [
      {"measurement": "teratogenic potency", "setting": "[3]", "value": "most potent"}
    ]},
    {"smiles": "C#CCC(CCCC)C(=O)O", "note": "(stereo not drawn) [2-n-butyl-4-pentynoic acid]", "values": [
      {"measurement": "neurite outgrowth", "setting": "[1]; 1.0 mM, 2 mM", "value": "Induction of neurite outgrowth"},
      {"measurement": "teratogenic potency", "setting": "[3]", "value": "most potent"}
    ]},
    {"smiles": "C#CCC(CCCCC)C(=O)O", "note": "(stereo not drawn) [2-n-pentyl-4-pentynoic acid]", "values": [
      {"measurement": "neurite outgrowth", "setting": "[1]; 0.3 mM, 0.5 mM", "value": "Induction of neurite outgrowth"},
      {"measurement": "immunofluorescence directed against NCAM", "setting": "[4]", "value": "increased immunofluorescence"},
      {"measurement": "teratogenic potency", "setting": "[3]", "value": "most potent"}
    ]},
    {"smiles": "C#CCC(CCC)C(=O)O", "note": "(stereo not drawn) [2-n-propyl-4-pentynoic acid]", "values": [
      {"measurement": "teratogenic potency of S-enantiomer relative to R-enantiomer", "setting": "[5]", "value": "more potent"},
      {"measurement": "teratogenic potency", "setting": "[3]", "value": "most potent"}
    ]},
    {"smiles": "C=CCC(CCC)C(=O)O", "note": "(stereo not drawn) [Example 4-en-VPA, 2-n-propyl-4-pentenoic acid]", "values": [
      {"measurement": "teratogenic potency of S-enantiomer relative to R-enantiomer", "setting": "[5]", "value": "more potent"}
    ]},
    {"smiles": "CC/C=C(\\CCC)C(=O)O", "note": "[IV]", "values": [
      {"measurement": "teratogenic activities", "setting": "[5]", "value": "very low or undetectable"},
      {"measurement": "cellular neurotrophic activity", "setting": "[1]", "value": "lowers, but does not abolish"},
      {"measurement": "antiproliferative potency / activity", "setting": "[2]", "value": "lowers, but does not abolish"},
      {"measurement": "anticonvulsant properties", "setting": "[6]", "value": "good"}
    ]},
    {"smiles": "C#CC[C@H](CCC)C(=O)O", "note": "[S-2-n-propyl-4-pentynoic acid]", "values": [
      {"measurement": "teratogenic potency of S-enantiomer relative to R-enantiomer", "setting": "[5]", "value": "significantly greater"}
    ]},
    {"smiles": "CC#CCC(CCC)C(=O)O", "note": "(stereo not drawn) [VI]", "values": [
      {"measurement": "teratogenic activities", "setting": "[5]", "value": "very low or undetectable"},
      {"measurement": "cellular neurotrophic activity", "setting": "[1]", "value": "lowers, but does not abolish"},
      {"measurement": "antiproliferative potency / activity", "setting": "[2]", "value": "lowers, but does not abolish"},
      {"measurement": "anticonvulsant properties", "setting": "[6]", "value": "good"}
    ]},
    {"smiles": "C/C=C\\CC(CCC)C(=O)O", "note": "(stereo not drawn) [V]", "values": [
      {"measurement": "cellular neurotrophic activity", "setting": "[1]", "value": "lowers, but does not abolish"},
      {"measurement": "antiproliferative potency / activity", "setting": "[2]", "value": "lowers, but does not abolish"}
    ]},
    {"smiles": "CCCC(CCC)C(=O)O", "note": "[valproate, valproic acid]", "values": [
      {"measurement": "transfer into the central nervous system", "setting": "[7]", "value": "very limited"},
      {"measurement": "antiproliferative action", "setting": "[8]", "value": "potently inhibit"}
    ]},
    {"smiles": "CCCC(CCC)C(N)=O", "note": "[valpromide]", "values": [
      {"measurement": "teratogenic activities", "setting": "[5]", "value": "non-teratogenic"},
      {"measurement": "antiproliferative action", "setting": "[8]", "value": "not antiproliferative"}
    ]}
  ]
}
